{
  "source": "paper PMC11530122",
  "about": "“Mutant induced neurons and humanized mice enable identification of Niemann-Pick type C1 proteostatic therapies” (JCI Insight, 2024)",
  "molecular_target": "T1, NPC1 (Homo sapiens, UniProt O15118)",
  "T1 construct": "full-length WT human NPC1, C-terminal Strep tag, in peptidiscs",
  "T1 sequence (O15118 23-1278)": "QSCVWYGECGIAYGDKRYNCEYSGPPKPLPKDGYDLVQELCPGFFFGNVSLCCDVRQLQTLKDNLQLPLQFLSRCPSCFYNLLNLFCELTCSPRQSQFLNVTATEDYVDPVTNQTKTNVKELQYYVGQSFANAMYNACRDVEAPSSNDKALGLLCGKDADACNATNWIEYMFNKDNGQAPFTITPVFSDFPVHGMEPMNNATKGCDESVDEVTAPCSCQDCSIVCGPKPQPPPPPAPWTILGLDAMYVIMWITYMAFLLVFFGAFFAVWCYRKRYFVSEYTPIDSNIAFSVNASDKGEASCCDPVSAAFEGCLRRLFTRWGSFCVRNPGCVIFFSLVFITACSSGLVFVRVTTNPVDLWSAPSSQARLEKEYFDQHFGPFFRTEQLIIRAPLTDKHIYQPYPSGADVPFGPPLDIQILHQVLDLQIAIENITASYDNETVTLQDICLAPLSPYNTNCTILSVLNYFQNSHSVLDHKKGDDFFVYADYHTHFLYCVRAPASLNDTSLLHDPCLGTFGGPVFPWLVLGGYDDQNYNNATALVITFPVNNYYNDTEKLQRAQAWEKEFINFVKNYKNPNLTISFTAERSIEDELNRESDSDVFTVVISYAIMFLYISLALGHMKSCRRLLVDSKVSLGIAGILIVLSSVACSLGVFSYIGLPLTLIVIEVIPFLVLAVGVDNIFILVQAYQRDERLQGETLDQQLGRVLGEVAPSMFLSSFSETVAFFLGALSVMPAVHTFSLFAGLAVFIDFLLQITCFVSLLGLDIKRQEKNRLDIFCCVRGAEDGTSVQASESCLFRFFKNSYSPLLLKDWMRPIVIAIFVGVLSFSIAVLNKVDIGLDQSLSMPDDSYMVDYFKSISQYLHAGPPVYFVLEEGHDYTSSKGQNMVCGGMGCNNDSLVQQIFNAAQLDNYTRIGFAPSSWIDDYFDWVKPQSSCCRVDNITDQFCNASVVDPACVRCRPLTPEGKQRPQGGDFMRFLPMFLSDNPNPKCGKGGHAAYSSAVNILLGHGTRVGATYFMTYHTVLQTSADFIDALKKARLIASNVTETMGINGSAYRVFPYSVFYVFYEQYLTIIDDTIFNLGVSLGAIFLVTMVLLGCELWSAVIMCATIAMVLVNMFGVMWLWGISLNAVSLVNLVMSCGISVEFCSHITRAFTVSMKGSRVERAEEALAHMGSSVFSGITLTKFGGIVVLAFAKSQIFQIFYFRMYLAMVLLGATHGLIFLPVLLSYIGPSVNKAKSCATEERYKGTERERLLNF",
  "assay": "microscale thermophoresis; nanoDSF thermal stability with purified NPC1 (EC50 approximately […])",
  "assay_type": "binding",
  "data": [
    {"substance": "mo56-hydroxycholesterol [mo56Hc]", "values": [
      {"measurement": "EC50", "result": 177, "unit": "nM"}
    ]}
  ]
}
